Measurements: patent publication US20220016101A1 (ACADIA Pharmaceuticals Inc., priority 2018, published 2022)

Tested on: patients with MDD and an inadequate response to an SSRI or SNRI
Assay: Massachusetts General Hospital Sexual Functioning Index (MGH-SFI), Study ACP-103-042
Assay type: in vivo, human
Source text: “Massachusetts General Hospital Sexual Functioning Index (MGH-SFI)” is described, for instance, in Labbate and Lare, 2001, Psychother Psychosom. 70(4):221-225. This is a patient facing questionnaire that quantifies sexual dysfunction into 5 functional domains (“interest in sex,” “sexual arousal,” “ability to achieve orgasm,” “ability to maintain erection” (males only), and “sexual satisfaction”). Patients rate each item using a 6-point scale ranging from 1 (good function) to 6 (poor function). High scores indicate poor sexual functioning. […] The determination of the subject's status and eligibility for randomization in Stage 2 was made in a double-blind manner. […] Sexual functioning was assessed using the Massachusetts General Hospital Sexual Functioning Index or MGH-SFI (Labbate and Lare, 2001, Psychother Psychosom. 70(4):221-225). This is a patient facing questionnaire that quantifies sexual dysfunction into 5 functional domains (“interest in sex,” “sexual arousal,” “ability to achieve orgasm,” “ability to maintain erection” [malesonly], and “sexual satisfaction”). Patients rate each item using a 6-point scale ranging from 1 (good function) to 6 (poor function). The time frame for this scale is the past month. This scale was administered at baseline and Week 5 in both stages of the study. High scores indicate poor sexual functioning. In ACP-103-042 the mean scores for MGH-SFI at Baseline was calculated over all 5 domains for males and the 4 domains for females. For MGH-SFI (follow-up version) at Study Weeks 5 and 10, the mean was calculated in the same way as MGH-SFI at Baseline. […] Tables 10-27 summarize the detailed data of MGH-SFI individual items of the overall study group (Tables 10-15), the subgroup of age of <=50 (Tables 16-21) and the subgroup of age of >50 (Table 21-26). In Tables 9-26, ANCOVA=analysis of covariance; OC=observed cases; LSM=least squares mean; CI=confidence interval; SD=standard deviation; SE=standard error. Stage 1: Baseline=Study Week 0, Week 5=Study Week 5; Stage 2: Baseline=Study Week 5, Week 5=Study Weeks 10. LSM from the stage-specific ANCOVA analysis with the change from baseline as the outcome, treatment group as a factor, and the corresponding Baseline value as a covariate. 2-sided p-value for treatment difference from the stage-specific ANCOVA analysis. An treatment effect size (Cohen's d) is calculated using the formula: Effect Size=Least Square mean difference between PIM and PBO/SD. The corresponding 95% confidence interval for an effect size is calculated based on the theoretical probability distribution of the effect size. […] Tables 10-15 and 28-38 summarize the detailed data of MGH-SFI individual items of the overall study group (Tables 10-15), the female subgroup (Tables 33-37) and the male subgroup (Table 38-43). An treatment effect size (Cohen's d) is calculated using the formula: Effect Size=Least Square mean difference between PIM and PBO/SD. The corresponding 95% confidence interval for an effect size is calculated based on the theoretical probability distribution of the effect size. In Tables 10-15 and 28-38, ANCOVA=analysis of covariance; OC=observed cases; LSM=least squares mean; CI=confidence interval; SD=standard deviation; SE=standard error. Stage 1: Baseline=Study Week 0, Week 5=Study Week 5; Stage 2: Baseline=Study Week 5, Week 5=Study Weeks 10. LSM from the stage-specific ANCOVA analysis with the change from baseline as the outcome, treatment group as a factor, and the corresponding Baseline value as a covariate. 2-sided p-value for treatment difference from the stage-specific ANCOVA analysis. An treatment effect size (Cohen's d) is calculated using the formula: Effect Size=Least Square mean difference between PIM and PBO/SD. The corresponding 95% confidence interval for an effect size is calculated based on the theoretical probability distribution of the effect size.

[1] = male subgroup, Stage 2, PIM 34 mg
[2] = male subgroup, Stage 2, PIM 34 mg vs placebo, change from baseline to Week 5
[3] = male subgroup, Stage 2, PIM 34 mg, Week 5
[4] = subgroup <=50 years old, Stage 1, PIM 34 mg

Structure (SMILES): CC(C)COc1ccc(CNC(=O)N(Cc2ccc(F)cc2)C2CCN(C)CC2)cc1 [pimavanserin, N-(4-Fluorophenylmethyl)-N-(1-methylpiperidin-4-yl)-N′-(4-(2-methylpropyloxy)phenylmethyl)carbamide]
- MGH-SFI Item 02: Ability to Get Sexually Aroused or Excited, Change from Baseline to Week 5, Median [1]: −1.0
- MGH-SFI Item 03: Ability to Achieve Orgasm, Change from Baseline to Week 5, Mean (SE) [1]: −0.8 (0.36)
- MGH-SFI Item 03: Ability to Achieve Orgasm, Change from Baseline to Week 5, Median [1]: 0.0
- MGH-SFI Item 04: (Men) Ability to Get and Maintain an Erection, Change from Baseline to Week 5, Mean (SE) [1]: −1.0 (0.41)
- MGH-SFI Item 04: (Men) Ability to Get and Maintain an Erection, Change from Baseline to Week 5, Median [1]: −1.0
- MGH-SFI Item 05: Overall Sexual Satisfaction, Change from Baseline to Week 5, Mean (SE) [1]: −1.4 (0.50)
- MGH-SFI Item 05: Overall Sexual Satisfaction, Change from Baseline to Week 5, Median [1]: −1.0
- MGH-SFI Item 06: Overall Improvement Since Last Medication Change, Effect Size (Cohen's d) (male subgroup, Stage 2, PIM 34 mg vs placebo, Week 5): 0.405
- MGH-SFI Item 02: Ability to Get Sexually Aroused or Excited, Effect Size (Cohen's d) [2]: −0.154
- MGH-SFI Item 03: Ability to Achieve Orgasm, Effect Size (Cohen's d) [2]: 0.497
- MGH-SFI Item 04: (Men) Ability to Get and Maintain an Erection, Effect Size (Cohen's d) [2]: 0.701
- MGH-SFI Item 05: Overall Sexual Satisfaction, Effect Size (Cohen's d) [2]: 0.511
- MGH-SFI Item 02: Ability to Get Sexually Aroused or Excited, Week 5, Mean (SE) [3]: 3.6 (0.47)
- MGH-SFI Item 02: Ability to Get Sexually Aroused or Excited, Week 5, Median [3]: 4.0
- MGH-SFI Item 03: Ability to Achieve Orgasm, Week 5, Mean (SE) [3]: 3.6 (0.56)
- MGH-SFI Item 03: Ability to Achieve Orgasm, Week 5, Median [3]: 4.0
- MGH-SFI Item 04: (Men) Ability to Get and Maintain an Erection, Week 5, Mean (SE) [3]: 3.1 (0.54)
- MGH-SFI Item 04: (Men) Ability to Get and Maintain an Erection, Week 5, Median [3]: 4.0
- MGH-SFI Item 05: Overall Sexual Satisfaction, Week 5, Mean (SE) [3]: 3.0 (0.53)
- MGH-SFI Item 05: Overall Sexual Satisfaction, Week 5, Median [3]: 3.0
- MGH-SFI Item 06: Overall Improvement Since Last Medication Change, Week 5, Mean (SE) [3]: 3.7 (0.53)
- MGH-SFI Item 06: Overall Improvement Since Last Medication Change, Week 5, Median [3]: 4.0
- MGH-SFI 01: Interest in Sex, Effect Size (Cohen's d) (male subgroup, Stage 2, positive = pimavanserin better than placebo): 0.174
- MGH-SFI Items 1, 2, 3, and 5 mean change from baseline to Week 5 vs placebo (overall study group): significantly greater
- MGH-SFI 04: (Men) Ability to Get and Maintain an Erection, Change from Baseline to Week 5 Mean (SE) [4]: −1.7 (1.45)
- MGH-SFI 04: (Men) Ability to Get and Maintain an Erection, Change from Baseline to Week 5 Median [4]: −2.0
- MGH-SFI 04: (Men) Ability to Get and Maintain an Erection, Week 5 Mean (SE) [4]: 2.3 (0.67)
- MGH-SFI 04: (Men) Ability to Get and Maintain an Erection, Week 5 Median [4]: 3.0
- MGH-SFI 05: Overall Sexual Satisfaction, Change from Baseline to Week 5 Mean (SE) [4]: −0.5 (0.35)
- MGH-SFI 05: Overall Sexual Satisfaction, Change from Baseline to Week 5 Median [4]: 0.0
- MGH-SFI 05: Overall Sexual Satisfaction, Week 5 Mean (SE) [4]: 3.6 (0.43)
- MGH-SFI 05: Overall Sexual Satisfaction, Week 5 Median [4]: 4.0
- MGH-SFI 06: Overall Improvement Since Last Medication Change, Week 5 Mean (SE) [4]: 3.0 (0.24)
- MGH-SFI 06: Overall Improvement Since Last Medication Change, Week 5 Median [4]: 3.0
- MGH-SFI 04: (Men) Ability to Get and Maintain an Erection, Effect Size (Cohen's d) (subgroup <=50 years old, Stage 1, PIM 34 mg vs placebo): 0.877
